The values below come from patent US8895761B2, “4-phenylpyrane-3,5-diones, 4-phenylthiopyrane-3,5-diones and 2-phenylcyclohexane-1,3,5-triones as herbicides” (Syngenta Limited, priority 2007, dated 2014).

Assay type in all cases: in vivo
The subject of experiment [1] is Avena fatua (AVEFA). The experiment in a line: Pre-emergence herbicidal glasshouse test, Avena fatua. The settings on record: Avena fatua, 312 h, rate 250 g/ha, evaluated after 13 days, scale 100 = total damage to plant, 0 = no damage. The method, boiled down:
(§1)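 Visual damage scores (0 = undamaged, top = plant totally killed) were taken 13 days after spraying. Treatment was given one day after sowing or at day 8 of cultivation, under 24/16° C. glasshouse conditions.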

The test system of experiment [2] is Setaria faberi (SETFA). Kind of experiment: Post-emergence herbicidal glasshouse test, Setaria faberi. The following applies: Setaria faberi, 312 h, rate 250 g/ha, evaluated after 13 days, scale 100 = total damage to plant, 0 = no damage. On the procedure:
(§2) Seeds of a variety of test species were sown in standard soil in pots. After cultivation for one day (pre-emergence) or after 8 days cultivation (post-emergence) under controlled conditions in a glasshouse (at 24/16° C., day/night; 14 hours light; 65% humidity), the plants were sprayed with an aqueous spray solution derived from the formulation of the technical active ingredient in acetone/water (50:50) solution containing 0.5% Tween 20 (polyoxyethelyene sorbitan monolaurate, CAS RN 9005-64-5). The test plants were then grown in a glasshouse under controlled conditions in a glasshouse (at 24/16° C., day/night; 14 hours light; 65% humidity) and watered twice daily. After 13 days for pre and post-emergence, the test was evaluated ([…] to plant; 0=no damage to plant).
(§3) Setaria faberi (SETFA), Lolium perenne (LOLPE), Alopecurus myosuroides (ALOMY), Echinochloa crus-galli (ECHCG) and Avena fatua (AVEFA).

The subject of experiment [3] is Setaria faberi (SETFA). Kind of experiment: Pre-emergence herbicidal glasshouse test, Setaria faberi. The settings on record: rate 250 g/ha, evaluated after 13 days, scale 100 = total damage to plant, 0 = no damage; for pest or weed control at 250 g/ha: Setaria faberi, 312 h. The procedure:
as §2, §3

The test system of experiment [4] is Alopecurus myosuroides (ALOMY). Kind of experiment: Post-emergence herbicidal glasshouse test, Alopecurus myosuroides. The following applies: Alopecurus myosuroides, 312 h, rate 250 g/ha, evaluated after 13 days, scale 100 = total damage to plant, 0 = no damage. Put shortly: as §1
Experiment [5] deals with Alopecurus myosuroides (ALOMY). Kind of experiment: Pre-emergence herbicidal glasshouse test, Alopecurus myosuroides. The settings on record: rate 250 g/ha, evaluated after 13 days, scale 100 = total damage to plant, 0 = no damage; for pest or weed control at 250 g/ha: Alopecurus myosuroides, 312 h. Put shortly:
as §1

Experiment [6] deals with Echinochloa crus-galli (ECHCG). Kind of experiment: Post-emergence herbicidal glasshouse test, Echinochloa crus-galli. The following applies: Echinochloa crus-galli, 312 h, rate 250 g/ha, evaluated after 13 days, scale 100 = total damage to plant, 0 = no damage. Put shortly: as §1
Experiment [7] relates to Avena fatua (AVEFA). The experiment in a line: Post-emergence herbicidal glasshouse test, Avena fatua. The settings on record: Avena fatua, 312 h, rate 250 g/ha, evaluated after 13 days, scale 100 = total damage to plant, 0 = no damage. Put shortly: as §1
The test system of experiment [8] is Echinochloa crus-galli (ECHCG). Kind of experiment: Pre-emergence herbicidal glasshouse test, Echinochloa crus-galli. The settings on record: Echinochloa crus-galli, 312 h, rate 250 g/ha, evaluated after 13 days, scale 100 = total damage to plant, 0 = no damage. The method, boiled down: as §1

Take `CCc1cc(-c2ccc(C)cc2)ccc1C1=C(O)[C@@]2(C)CC[C@H](O2)C1=O` (racemic) [Compound A-6]: the pest or weed control at 250 g/ha stood at 0% in the experiment with Avena fatua (AVEFA) [1]; 80% in the experiment on Setaria faberi (SETFA) [2]; 0% in the experiment with Setaria faberi (SETFA) [3]; 70% in experiment [4]; 0% in experiment [5]; 80% in experiment [6]. The pest or weed control at 250 g/ha came to 30% in the experiment on Avena fatua (AVEFA) [7] and 0% in experiment [8].
For `Cc1cc(-c2ccccc2)cc(C)c1C1=C(O)C(C)(C)OC(C)(C)C1=O` [Compound A-1], the pest or weed control at 250 g/ha turned out to be 40% with Avena fatua (AVEFA) [1]; 80% with Setaria faberi (SETFA) [2]; 90% in the experiment on Setaria faberi (SETFA) [3]; 50% in experiment [4]; 30% in experiment [5]; 100% in experiment [6]. Moreover, the pest or weed control at 250 g/ha in the experiment with Avena fatua (AVEFA) [7] was found to be 0%; in experiment [8], 70%.
Turning to `CCc1cc(-c2ccc(Cl)s2)ccc1C1=C(O)[C@@]2(C)CC[C@H](O2)C1=O` [Compound A-23], the pest or weed control at 250 g/ha is 40% in the experiment on Avena fatua (AVEFA) [1]; 80% with Setaria faberi (SETFA) [2]; 60% with Setaria faberi (SETFA) [3]; 90% in experiment [4]; 60% in experiment [5]; 100% in experiment [6]. Besides, the results for the pest or weed control at 250 g/ha (with Avena fatua (AVEFA) [7]; in experiment [8]) were 30% and 50%, respectively.
With `Cc1cc(-c2ccccc2)cc(C)c1C1=C(O)[C@@]2(C)C=C[C@H](O2)C1=O` [Compound A-2], the pest or weed control at 250 g/ha came out at 20% with Avena fatua (AVEFA) [1]; 80% with Setaria faberi (SETFA) [2]; 90% in experiment [4]; 100% in experiment [6]; 0% in the experiment with Avena fatua (AVEFA) [7]; 70% in experiment [8]. In the experiment on Setaria faberi (SETFA) [3], the “damage to plant SETFA, pre-emergence activity” value was 60. Moreover, in experiment [5], the “damage to plant ALOMY, pre-emergence activity” value amounted to 50.
On to `CCc1cc(-c2ccc(Cl)cc2C)ccc1C1=C(O)[C@@]2(C)CC[C@H](O2)C1=O` [Compound A-16], for which the pest or weed control at 250 g/ha in the experiment with Avena fatua (AVEFA) [1] is 0%; in the experiment with Setaria faberi (SETFA) [2], 80%; in the experiment on Setaria faberi (SETFA) [3], 50%; in experiment [4], 90%; in experiment [5] it was 0%; in experiment [6] it was 20%. Further, the pest or weed control at 250 g/ha (in the experiment with Avena fatua (AVEFA) [7]; in experiment [8]) was 0% in each case.
Turning to `CCc1cc(-c2ccccc2)ccc1C1=C(O)[C@@]2(C)CC[C@H](O2)C1=O` (racemic) [Compound A-4], the pest or weed control at 250 g/ha was determined as 0% in the experiment on Avena fatua (AVEFA) [1]; 60% in the experiment on Setaria faberi (SETFA) [2]; 20% in the experiment with Setaria faberi (SETFA) [3]; 80% in experiment [4]; 40% in experiment [5]; 80% in experiment [6]. For the same molecule, the pest or weed control at 250 g/ha in the experiment with Avena fatua (AVEFA) [7] stood at 0%; in experiment [8] it was 40%.
Regarding `CCc1cc(-c2ccc(Cl)cc2)ccc1C1=C(OC(C)=O)[C@@H]2CC[C@@](C)(O2)C1=O` (racemic) [Compound D-1], the pest or weed control at 250 g/ha in the experiment on Avena fatua (AVEFA) [1] was found to be 40%; in the experiment with Setaria faberi (SETFA) [2] it was 100%; in the experiment with Setaria faberi (SETFA) [3] it was 80%; in experiment [4], 90%; in experiment [5], 60%; in experiment [6], 100%. Also, the figures for the pest or weed control at 250 g/ha (with Avena fatua (AVEFA) [7]; in experiment [8]) were 80% and 70%, respectively.
On to `CCc1cc(-c2ccc(Cl)c(F)c2)ccc1C1=C(O)[C@@]2(C)CC[C@H](O2)C1=O` (racemic) [Compound A-24], for which the pest or weed control at 250 g/ha with Avena fatua (AVEFA) [1] worked out at 60%; with Setaria faberi (SETFA) [2], 100%; in the experiment on Setaria faberi (SETFA) [3], 90%; in experiment [4], 90%; in experiment [5] it was 70%; in experiment [6], 100%. The pest or weed control at 250 g/ha with Avena fatua (AVEFA) [7] was 80%; in experiment [8] it was 100%.
For `CCc1cc(-c2ccc(Cl)cc2)ccc1C1=C(O)[C@@]2(C)C=C[C@H](O2)C1=O` [Compound A-7], the pest or weed control at 250 g/ha with Avena fatua (AVEFA) [1] stood at 0%; in the experiment with Setaria faberi (SETFA) [2] it was 100%; in the experiment with Setaria faberi (SETFA) [3], 0%; in experiment [4], 60%; in experiment [5], 0%; in experiment [6], 100%. The pest or weed control at 250 g/ha in the experiment with Avena fatua (AVEFA) [7] worked out at 30%; in experiment [8] it was 0%.
On to `CCc1cc(-c2ccc(Cl)c(Cl)c2F)ccc1C1=C(O)[C@@]2(C)CC[C@H](O2)C1=O` (racemic) [Compound A-31], for which the pest or weed control at 250 g/ha with Avena fatua (AVEFA) [1] came out at 30%; with Setaria faberi (SETFA) [2], 100%; with Setaria faberi (SETFA) [3] it was 60%; in experiment [4] it was 90%; in experiment [5], 30%; in experiment [6], 100%. The values for the pest or weed control at 250 g/ha (in the experiment with Avena fatua (AVEFA) [7]; in experiment [8]) were 40% and 50%, respectively.
